# Laboratory results from PubChem BioAssay AID179 (DTP/NCI, 2004).
# The source made the active and inactive calls.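 Rule for the calls: active = compounds giving half or more protection of infected cells from virus-caused growth loss, again on retest; inactive = the rest.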
# Tested on: CEM cells HIV-1 protection, formazan growth assay
# Test: NCI AIDS Antiviral Assay
# Conditions: for IC50: measured here: growth of uninfected CEM cells
# Method in brief: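 Steps: treat uninfected and HIV-1-infected human CEM cells at five drug levels; quantify growth by soluble formazan; retest any compound reaching 50% protection; classify actives from the retest.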
SMILES,EC50 [µM],IC50 [µM],outcome
O=C1c2ccccc2S(=O)(=O)c2c1cccc2[N+](=O)[O-],> 200,0.851,
CC1(C)C(=O)/C=C\C(=O)C(C)(C)C2=CC=C(O2)C(C)(C)C(=O)C(Br)C(Br)C(=O)C(C)(C)C2=CC=C1O2 (stereo unspecified),,,inactive
O=C(/C=C/c1ccccc1O)c1cccc2ccccc12,93.3,95.5,
COc1cccc2c1N(COC(C)=O)C(=O)C1C=CC(C)(C)OC21 (stereo unspecified),> 100,56.2,
CN(C)CCSC(=Nc1ccccc1)n1cccc1,> 26.3,> 26.3,
O=P(O)(O)OC1C(OP(=O)(O)O)C(OP(=O)(O)O)C(OP(=O)(O)O)C(OP(=O)(O)O)C1OP(=O)(O)O (stereo unspecified),> 200,> 200,
COC(=O)NC[C@@H]1OCc2cc3c(cc2[C@]12C=CCCC2)OCO3,> 107,2.63,
CCOC(=O)Nc1nc2cc(C(=O)OCC)n(C)c2s1,> 200,> 200,
CC(C)N=c1sc(-c2ccccc2)c(C#N)c(=O)n1C(C)C,> 75.9,55,
CN(C)c1cc(CN(CCSS(=O)c2ccccc2[N+](=O)[O-])S(=O)c2ccccc2[N+](=O)[O-])nc(CN(CCSS(=O)c2ccccc2[N+](=O)[O-])S(=O)c2ccccc2[N+](=O)[O-])c1 (stereo unspecified),> 100,> 100,
COc1cc2c(c(OC)c1OC)-c1ccc(OC)c(=O)cc1C(NC(=O)CCCCCNc1ccc(N=[N+]=[N-])cc1[N+](=O)[O-])CC2 (stereo unspecified),> 200,0.0631,
CN(C)c1ccc(/C=C(\NC(=O)c2ccccc2)c2nn(C)c(=O)o2)cc1,> 100,> 100,
CCOC(=O)NC(C(C(=O)OCC)C(=O)OCC)(C(F)(F)F)C(F)(F)F,> 200,> 200,
COc1cc2ccc3c(c2oc1=O)[C@@H](OC(=O)C12CCC(C)(C(=O)O1)C2(C)C)[C@@H](OC(=O)C12CCC(C)(C(=O)O1)C2(C)C)C(C)(C)O3 (stereo partly specified),0.851,19.1,
CCN(CC)CCCN1CC(=O)N2CCCCN2C(=O)C1,> 200,> 200,
O=C(O)COc1ccc(Cl)cc1Cc1cc(Cl)ccc1OCC(=O)O,> 200,89.1,
CCN(C(=O)N[C@H](C(=O)N[C@@H](CSC)C(=O)N[C@@H](C)C(=O)OC)C(C)C)c1ccccc1,,,inactive

SMILES,EC50 [µM],IC50 [µM],outcome
COc1ccc(C2(O)C(S(=O)(=O)c3ccc(C)cc3)=Cc3ccc(OC)cc32)cc1 (stereo unspecified),> 200,> 200,
CN(C)CCn1c(=O)nc2c3c(c([N+](=O)[O-])ccc31)Nc1ccc(O)cc1-2,> 2,1.95,
O=C1c2ccccc2C(=O)N1C/C=N/NS(=O)(=O)c1cccc([N+](=O)[O-])c1,> 646,> 646,
Cc1c(N=Nc2ccc(N(C)C)cc2)cc[n+]([O-])c1C,> 200,> 200,
O=C1OC([C@H](O)c2cccnc2)c2ccccc21 (stereo partly specified),> 200,> 200,
CCS[C@@H]([C@@H](COC(C)=O)OC(C)=O)[S@](=O)CC,> 200,26.3,
COC(=O)C1=CC2OC13CC1CCC3(C2=O)C1(C)C (stereo unspecified),,,inactive
COC(=O)C(=O)/C=C(\O)c1ccc(Cl)cc1,> 200,> 200,
C#CC1OC(C)(C)OC1C1OC(C)(C)OCC1O (stereo unspecified),,,inactive
O=C1OC2C(O)C3CC1C2O3 (stereo unspecified),> 1580,> 1580,
COc1ccc2nc3cc(Cl)ccc3c(Sc3ccc(NC(C)=O)cc3)c2c1,> 12.6,> 12.6,
COc1ccc2c(c1)CC1NC2Cc2ccccc21 (stereo unspecified),,,inactive
CCCCCC(=O)C(C)C1=Nc2nnc(CCCCCCCc3nnc4n3C(=O)C(C(C)C(=O)CCCCC)=N4)n2C1=O (stereo unspecified),> 2.45,> 2.45,
COc1cc2c(c3c1[C@H](O)[C@H](C)[C@@H](C)O3)C=CC(C)(C)O2,> 200,81.3,
CC(=O)OCC(OC(C)=O)C(OC(C)=O)C(OC(C)=O)C(/C=N\Nc1nc2ccccc2c(=O)[nH]1)=N/Nc1nc2ccccc2c(=O)[nH]1 (stereo unspecified),> 100,> 100,
Cc1ccc2c(c1)C1(C)OC(C=CC1=O)O2 (stereo unspecified),> 3.16,0.525,
